Experimental data as given in PubChem BioAssay (NCI).
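Cultured in 96-well plates, cells were exposed to test compound for 48 hours across five concentrations. GI50 = concentration required for 50% inhibition of growth. TGI marks complete inhibition of growth.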

Key:
Experiment in all cases: DTP human tumour cell line panel, 48 h
NCI-H23 lung = test system: NCI-H23 lung
NCI-H460 lung = test system: NCI-H460 lung
NCI-H522 lung = test system: NCI-H522 lung
NCI/ADR-RES ovarian = test system: NCI/ADR-RES ovarian
OVCAR-3 ovarian = test system: OVCAR-3 ovarian
OVCAR-4 ovarian = test system: OVCAR-4 ovarian
OVCAR-5 ovarian = test system: OVCAR-5 ovarian
OVCAR-8 ovarian = test system: OVCAR-8 ovarian
PC-3 prostate = test system: PC-3 prostate
RPMI-8226 leukemia = test system: RPMI-8226 leukemia
RXF 393 renal = test system: RXF 393 renal
SF-268 CNS = test system: SF-268 CNS
SF-295 CNS = test system: SF-295 CNS
SK-MEL-2 melanoma = test system: SK-MEL-2 melanoma
SK-MEL-28 melanoma = test system: SK-MEL-28 melanoma
SK-MEL-5 melanoma = test system: SK-MEL-5 melanoma
SK-OV-3 ovarian = test system: SK-OV-3 ovarian
SN12C renal = test system: SN12C renal
SNB-19 CNS = test system: SNB-19 CNS
SNB-75 CNS = test system: SNB-75 CNS
SR leukemia = test system: SR leukemia
SW-620 colon = test system: SW-620 colon
T-47D breast = test system: T-47D breast
TK-10 renal = test system: TK-10 renal
U251 CNS = test system: U251 CNS
UACC-257 melanoma = test system: UACC-257 melanoma
UACC-62 melanoma = test system: UACC-62 melanoma
UO-31 renal = test system: UO-31 renal

In the case of `Cc1ccc2c(c1)O/C(=C\c1ccc([N+](=O)[O-])o1)C2=O`, the TGI (NCI-H23 lung) is reported as 4820 nM, the GI50 (NCI-H460 lung) is reported as 1580 nM and the TGI (NCI-H460 lung) is reported as 3220 nM. The GI50 (NCI-H522 lung) was 531 nM, the TGI (NCI-H522 lung) was 1860 nM and the GI50 (NCI/ADR-RES ovarian) was 2850 nM. The TGI (NCI/ADR-RES ovarian) was 23100 nM, the GI50 (OVCAR-3 ovarian) was 1530 nM and the TGI (OVCAR-3 ovarian) was 2860 nM. The GI50 (OVCAR-4 ovarian) was 1470 nM, the TGI (OVCAR-4 ovarian) was 2840 nM and the GI50 (OVCAR-5 ovarian) was 2400 nM. It also gave a TGI (OVCAR-5 ovarian) of 4750 nM, a GI50 (OVCAR-8 ovarian) of 1400 nM and a TGI (OVCAR-8 ovarian) of 6570 nM. It also gave a GI50 (PC-3 prostate) of 1750 nM, a TGI (PC-3 prostate) of 5150 nM and a GI50 (RPMI-8226 leukemia) of 447 nM. It also gave a TGI (RPMI-8226 leukemia) of 2540 nM, a GI50 (RXF 393 renal) of 1340 nM and a TGI (RXF 393 renal) of 2740 nM. For the same compound, the GI50 (SF-268 CNS) was 1910 nM, the TGI (SF-268 CNS) was 5030 nM and the GI50 (SF-295 CNS) was 2420 nM. For the same compound, the TGI (SF-295 CNS) was 7060 nM, the GI50 (SK-MEL-2 melanoma) was 1900 nM and the TGI (SK-MEL-2 melanoma) was 3720 nM. It also gave a GI50 (SK-MEL-28 melanoma) of 2150 nM, a TGI (SK-MEL-28 melanoma) of 4890 nM and a GI50 (SK-MEL-5 melanoma) of 1610 nM. For the same compound, the TGI (SK-MEL-5 melanoma) was 3040 nM, the GI50 (SK-OV-3 ovarian) was 4660 nM and the TGI (SK-OV-3 ovarian) was > 100000 nM. It also gave a GI50 (SN12C renal) of 1920 nM, a TGI (SN12C renal) of 4960 nM and a GI50 (SNB-19 CNS) of 3980 nM. For the same compound, the TGI (SNB-19 CNS) was 21600 nM, the GI50 (SNB-75 CNS) was 2850 nM and the TGI (SNB-75 CNS) was > 100000 nM. For the same compound, the GI50 (SR leukemia) was 168 nM, the TGI (SR leukemia) was 799 nM and the GI50 (SW-620 colon) was 296 nM. The TGI (SW-620 colon) was 1270 nM, the GI50 (T-47D breast) was 1860 nM and the TGI (T-47D breast) was 4770 nM. The GI50 (TK-10 renal) was 1390 nM, the TGI (TK-10 renal) was 2750 nM and the GI50 (U251 CNS) was 1820 nM. The TGI (U251 CNS) was 3980 nM, the GI50 (UACC-257 melanoma) was 1540 nM and the TGI (UACC-257 melanoma) was 3310 nM. The GI50 (UACC-62 melanoma) was 1600 nM, the TGI (UACC-62 melanoma) was 3500 nM and the GI50 (UO-31 renal) was 1180 nM. The TGI (UO-31 renal) was 3460 nM.
